Results taken from patent publication US12345641B2, “Fluorescence quenching immunoassay” (IDEXX Laboratories, Inc., priority 2020, dated 2025).

Tests used:
[1] = system: Polyclonal anti-melamine antibody (Anti-Mel-Ab); experiment: Fluorescence of mixtures of melamine fluorescent tracers and anti-melamine antibody (Example 15); type: binding; conditions: tracer 30 nM, Anti-Mel-Ab 0 to 300 nM, PBS, ex 490 nm/em 520 nm
Description: Various substituted fluorescent tracers wherein melamine is conjugated to fluorescein were dissolved in DMSO (1 mM) and diluted in phosphate buffered saline (PBS) (pH=7.3) to provide a melamine tracer solution (1.2 μM). The following melamine tracers were used:
Polyclonal anti-melamine antibody (Anti-Mel-Ab, 4.65 mg/ml, commercially available from Meridian Life Sciences Inc. (Biodesign) of Memphis, TN) was diluted in PBS and serially diluted to provide Anti-Mel-Ab solutions having Anti-Mel-Ab concentrations ranging from 0 to 300 nM. The melamine tracer solutions (5 μL) were mixed with each Anti-Mel-Ab solution (195 μl) in a 96 well black assay plate with non-binding surface (commercially available from Corning Inc. of Corning, NY) to provide solutions having different molar ratios of the Anti-Mel-Ab to the melamine tracer. The concentration of the melamine tracer was 30 nM. The plate was gently shaken for 30 min at room temperature. The fluorescence intensities of each solution was then measured using a fluorescence plate reader (Synergy 4 Microplate Reader, commercially available from BioTek Instruments, Inc. of Winooski, VT) using an excitation wavelength of 490 nm and reading the emission at 520 nm.
Unless otherwise indicated, an excitation wavelength of 490 nm and reading the emission at 520 nm were used throughout the examples. […]

Anti-Mel-Ab = experiment: Fluorescence of Mel-F and Anti-Mel-Ab in PBS, serum and diluted serum with and without melamine (Example 17); type: binding; conditions: each solution: PBS, canine serum, serum diluted 1 in 10
Description: To a solution of Mel-F in PBS (1 μM, 6 μL) and to a mixture of Mel-F in PBS (1 μM, 6 μL) and Anti-Mel-Ab (1 μM, 6 μL) in the absence of and in the presence of melamine (2 μM, 6 μL) was added PBS, serum, or diluted serum (i.e., serum diluted 1 in 10 with PBS) to provide a final volume of 200 μL.

anti-NT-proBNP-Mab = experiment: Canine NT-proBNP peptide P1 dose response in PBS and serum (Example 52); type: binding
Description: A mixture of NT-proBNP P1-Fl or P1-DFF in PBS (100 nM, 25 μL) and anti-NT-proBNP-Mab in PBS (100 nM, […]) were incubated at room temperature for 30 min in the wells of a 96 well black assay plate. A series of NT-proBNP peptide P1 standard solutions in PBS or charcoal stripped serum having peptide or protein concentrations ranging from 0 to 320 nM (50 μL) were then added to the mixtures of P1-Fl or P1-DFF and anti-NT-proBNP Mab in PBS. The plate was then incubated for 30 min at room temperature and the fluorescence intensities recorded at excitation at 485 nm and emission at 520 nm. The results are shown in FIG. 49, FIG. 50, FIG. 51, and FIG. 52.

[2] = system: Monoclonal anti-NT-proBNP antibody (ADX-15 Mab); experiment: Fluorescence quenching of canine NT-proBNP peptide-Fl/DFF conjugates by anti-NT-proBNP Mab and Ab-BHQ10 (Example 52); type: binding; conditions: No = No Quenching
Description: NT-proBNP peptide-fluorescein (Fl) or -difluorofluorescein (DFF) conjugates were dissolved in DMSO (0.4 mM) and diluted with PBS to provide a stock solution (100 nM). Monoclonal anti-NT-proBNP antibody (ADX-15 Mab, IDEXX Laboratories Inc. of Westbrook, ME) (6.84 mg/ml) was serially diluted in PBS buffer to provide solutions having an antibody concentration ranging from 0 to 800 nM in PBS. In a 96 well black assay plate containing the serially diluted antibody solution (50 μL) was added the P1-Fl or P1-DFF, or other peptide-Fl or Peptide-DFF solution (50 μL), mixed well, incubated for 30 min and the fluorescence intensities recorded (excitation at 485 nm and emission at 520 nm). The results are provided in FIG. 47, FIG. 48, and Table 2.

[3] = system: anti-cefotaxime polyclonal antibody; experiment: Fluorescence of CEF-F with anti-cefotaxime antibody (Example 25); type: binding; conditions: tracer and antibody 200 nM
Description: Beta lactam antibiotics conjugated to fluorescein (i.e., AMO-FITC, AMO-F, AMP-F, and CEF-F) in PBS (400 nM, 100 μL) were mixed with either anti-penicillin or anti-cefotaxime polyclonal antibody (400 nM, 100 μL, commercially available from Novus Biologicals, LLC of Centennial, CO) in the absence of and in the presence of free beta-lactam antibiotic (ampicillin (400 nM) was added to AMP-F and cefotaxime (400 nM) was added to CEF-F) in a 96 well black assay plate. […] The solutions were incubated at room temperature for 5 min and the fluorescence intensity measured.

streptavidin = streptavidin (Streptomyces avidinii, UniProt P22629); experiment: Fluorescence of Biotin-F or Biotin-ED in the presence of streptavidin (Example 19); type: binding; conditions: saturation point, 1:1 molar ratio streptavidin to tracer
Description: Biotin-F or Biotin-ED (commercially available from Thermo Scientific of Waltham, MA) was dissolved in DMSO to provide a DMSO solution (8.5 μM). The structure of biotin ED is
The DMSO solution was then diluted with PBS to provide a solution having a Biotin-F or Biotin-ED concentration of 100 nM. 20 μL aliquots of the resulting Biotin-F or Biotin-ED solution in PBS was then added to the wells of a 96 well black assay plate. Solutions of streptavidin in PBS having a streptavidin concentration ranging from 0 to 100 nM were prepared and added (180 μL) to the Biotin-F or Biotin-ED solution in the plate. The plate was incubated for 30 min at room temperature and the fluorescence intensities then recorded.

anti-T4-Mab [4] = experiment: Fluorescence of T3-F and anti-T4-Mab after lyophilization (Example 22); conditions: T3-F and/or anti-T4-Mab lyophilized to dryness, reconstituted in PBS or charcoal treated horse serum
Description: T3-F (1.7 mg) was dissolved in 0.85 ml DMSO to provide a stock solution (2 mM). The T3-F stock solution was then diluted in PBS to provide a 1 μM working solution that was separated into two vials (1 mL each). To the first vial was added PBS (9 mL) and to the second vial was added PBS (8.9 mL) plus anti-T4 Mab (15 μM, 0.1 mL). The vials were mixed well and incubated for 30 min at room temperature. The fluorescence intensities for each solution (200 μL) was determined. Aliquots of each solution (200 μL) were then placed into wells of a 96 well black assay plate and lyophilized to dryness. To the dried residues was added 200 μL PBS, horse serum that had been treated with charcoal (i.e., the serum was “charcoal stripped” by dialyzing the serum in PBS buffer containing charcoal for at least three buffer changes to remove small molecules from the serum), or horse serum that had been treated with charcoal containing T4 (10 μg/dL) and the plate incubated for 30 min at room temperature. Fluorescence intensities were then recorded again.

anti-T4-Mab [5] = experiment: Fluorescence of T3 tracers and anti-T4-Mab in the presence of T4 (Example 20); type: binding
Description: Similar solutions were prepared and the fluorescence measured except that the T3-F was replaced with T3-5-F, T3-E-F and T3-FITC.

anti-T4 antibody = experiment: Maximum percentage fluorescence quenching of T2-F, T3-F, T4-F by anti-T4 antibody with and without quencher label (Example 27 table); type: binding
Description: In another experiment, tracer T2-F, T3-F, or T4-F was dissolved in DMSO to provide a DMSO solution at a tracer concentration of 1 mM. The DMSO solution was then diluted with phosphate buffered saline (“PBS”) to provide a stock solution of each tracer at a concentration of 10 μM. Monoclonal anti-T4-Mab or anti-T4-Mab conjugated to a quencher (Cy3-Ab, IRdyeQC1-Ab, Cy5-Ab, BHQ1-Ab) were serially diluted in PBS to provide solutions having an Anti-T4-Mab or anti-T4-Mab conjugated to quencher at concentration ranging from 0 to 2 μM. In a 96 well black assay plate containing the serially diluted Anti-T4-Mab or anti-T4-Mab conjugated to quencher (95 μL) was added the tracer T2-F, T3-F, or T4-F solution (5 μL), mixed well, and incubated for 30 min and the fluorescence intensities then recorded at an excitation wavelength of 485 nm and an emission wavelength of 520 nm. The results of maximum percentage fluorescence quenching for different tracers and quencher-modified antibodies are provided in the following Table: […]

α-cortisol antibodies = experiment: Fluorescence quenching of cortisol-4-Fl with cortisol antibody (Example 28); type: binding
Description: The cortisol-4-FL was combined with various equivalents of various a-cortisol antibodies commercially available from HyTest (of Turku, Finland), Abcam (of Cambridge, United Kingdom), and Bio-Connect BV (Fitzgerald Industries) (of the Netherlands). The fluorescence was measured as a function of the ratio of antibody (Ab) to cortisol-4-FL. The results are depicted in FIG. 21.

anti-NT-proBNP Mab = experiment: Canine NT-proBNP full length protein dose response (Example 52); type: binding
Description: A mixture of NT-proBNP P1-Fl or P1-DFF in PBS (200 nM, 10 μL) and anti-NT-proBNP Mab in PBS (200 nM, 10 μL) were incubated at room temperature for 30 min in the wells of a 96 well black assay plate. A series of NT-proBNP peptide P1 standard solutions in PBS having NT-proBNP full length protein (lyophilized powder synthesized by New England Biolabs of Ipswich, MA) at concentrations ranging from 0 to 320 nM (80 μL) were then added to the mixtures of P1-Fl or P1-DFF and anti-NT-proBNP Mab in PBS. The plate was then incubated for 30 min at room temperature and the fluorescence intensities recorded at an excitation of 485 nm and an emission of 520 nm.

Sequence of streptavidin (P22629 25-183, species assumed): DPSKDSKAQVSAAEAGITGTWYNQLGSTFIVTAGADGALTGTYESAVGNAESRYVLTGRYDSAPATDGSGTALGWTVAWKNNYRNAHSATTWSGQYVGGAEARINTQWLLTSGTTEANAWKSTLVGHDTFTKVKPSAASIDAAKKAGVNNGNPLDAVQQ

Nc1nc(N)nc(NCc2c(O)ccc3c(-c4ccccc4C(=O)O)c4ccc(=O)cc-4oc23)n1 [Mel-F, Melamine-Fluorescein]
degree of fluorescence quenching compared to the other melamine tracers [1]: highest degree of quenching
fluorescence of Mel-F after quenching by Anti-Mel-Ab relative to original value (Anti-Mel-Ab): about one-half of the original value

AEQLALEPLHRS [P1, canine NT-proBNP peptide]
fluorescence intensity as a function of NT-proBNP peptide P1 concentration (anti-NT-proBNP-Mab; PBS, mixture of P1-Fl or P1-DFF with Ab or Ab-BHQ10): a dose response was observed
dose response of P1 peptide in serum (anti-NT-proBNP-Mab; charcoal stripped serum, P1-Fl or P1-DFF): produced a dose response
Percentage Fluorescence Quenching, DFF Conjugate, Ab-BHQ10 ([2]; NT-proBNP peptide-difluorofluorescein conjugate, mAb-BHQ10, molar ratio of 1:1): 64.7%
Percentage Fluorescence Quenching, DFF Conjugate, Ab ([2]; NT-proBNP peptide-difluorofluorescein conjugate, molar ratio of 1:1): 63.3%
Percentage Fluorescence Quenching, F1 Conjugate, Ab ([2]; NT-proBNP peptide-fluorescein conjugate, Ab/Conjugate molar ratio of 1:1): 39.4%
Percentage Fluorescence Quenching, F1 Conjugate, Ab-BHQ10 ([2]; NT-proBNP peptide-fluorescein conjugate, mAb-BHQ10, molar ratio of 1:1): 40.2%

CO/N=C(\C(=O)NC1C(=O)N2C(C(=O)NCc3c(O)ccc4c(-c5ccccc5C(=O)O)c5ccc(=O)cc-5oc34)=C(COC(C)=O)CSC12)c1csc(N)n1 (stereo not shown) [CEF-F, Cefotaxime-Fluorescein]
fluorescence quenching by anti-cefotaxime antibody [3]: quenched

O=C(CCCCC1SCC2NC(=O)NC21)NCc1c(O)ccc2c(-c3ccccc3C(=O)O)c3ccc(=O)cc-3oc12 (stereo not shown) [Biotin-F, Biotin-Fluorescein]
quenching efficiency (streptavidin): 70%

O=C(O)c1ccccc1-c1c2ccc(=O)cc-2oc2c(CNC(Cc3cc(I)c(Oc4ccc(O)c(I)c4)c(I)c3)C(=O)O)c(O)ccc12 (stereo not shown) [T3-F]
assay performance after lyophilization of reagents (anti-T4-Mab [4]): effective
fluorescence quenching by anti-T4-Mab (anti-T4-Mab [5]; PBS, tracer and antibody equimolar): quenched
time to stable fluorescence signal (anti-T4-Mab [5]; quenching by anti-T4-Mab and recovery after addition of T4): ≤ 10 min
Percentage of fluorescence quenching, BHQ1-Ab (anti-T4 antibody; anti-T4-Mab conjugated to BHQ1): 30%
Percentage of fluorescence quenching, Cy5-Ab (anti-T4 antibody; anti-T4-Mab conjugated to Cy5): 40%
Percentage of fluorescence quenching, Ab (anti-T4 antibody; anti-T4-Mab without quencher): 30%

C[C@]12CCC(=NOCC(=O)NCc3c(O)ccc4c(-c5ccccc5C(=O)O)c5ccc(=O)cc-5oc34)C=C1CCC1C2[C@@H](O)C[C@@]2(C)C1CC[C@]2(O)C(=O)CO (stereo in doubt) [Cortisol-4-Fl]
fluorescence quenching on complex formation with cortisol antibody (α-cortisol antibodies): quenched

B1: full length NT-proBNP protein: canine NT-proBNP, SEQ ID NO: 14 (protein, listed as Canis familiaris)
chain: HPLGGRSPASEASEASEASGLWAVQELLGRLKDAVSELQAEQLALEPLHRSHSPAEAPEAGGTPRGVLAPHDSVLQALR
dose response of full length NT-proBNP spiked into charcoal stripped serum (anti-NT-proBNP Mab; P1-Fl/Ab or P1-DFF/Ab): dose response was also observed
fluorescence intensity as a function of full length NT-proBNP protein concentration (anti-NT-proBNP Mab; PBS, P1-Fl/Ab or P1-DFF/Ab at 1:1): a dose response was observed
